Results as given in publication PMC4557792 (ACS chemical biology, 2013).

Columns and labels:
VMAT2 [1] = conditions: endogenous substrate; cited from earlier work
VMAT2 [2] = target: VMAT2 (Rattus norvegicus, UniProt Q01827); assay type: cell-based; conditions: for inhibitory effect on VMAT2 transport (FFN206 uptake) in screen: tested compound 10 µM, FFN206 1 µM, 30 min preincubation, 60 min uptake
VMAT = conditions: cited from earlier work; for IC50: read-out: IC50, inhibiting [3H]DA uptake, rat brain vesicles
VMAT2-HEK cells = assay: Fluorescence microscopy of FFN206 accumulation in VMAT2-HEK cells; assay type: cell-based, human

VMAT2 (Rattus norvegicus, UniProt Q01827), sequence (Q01827 whole entry): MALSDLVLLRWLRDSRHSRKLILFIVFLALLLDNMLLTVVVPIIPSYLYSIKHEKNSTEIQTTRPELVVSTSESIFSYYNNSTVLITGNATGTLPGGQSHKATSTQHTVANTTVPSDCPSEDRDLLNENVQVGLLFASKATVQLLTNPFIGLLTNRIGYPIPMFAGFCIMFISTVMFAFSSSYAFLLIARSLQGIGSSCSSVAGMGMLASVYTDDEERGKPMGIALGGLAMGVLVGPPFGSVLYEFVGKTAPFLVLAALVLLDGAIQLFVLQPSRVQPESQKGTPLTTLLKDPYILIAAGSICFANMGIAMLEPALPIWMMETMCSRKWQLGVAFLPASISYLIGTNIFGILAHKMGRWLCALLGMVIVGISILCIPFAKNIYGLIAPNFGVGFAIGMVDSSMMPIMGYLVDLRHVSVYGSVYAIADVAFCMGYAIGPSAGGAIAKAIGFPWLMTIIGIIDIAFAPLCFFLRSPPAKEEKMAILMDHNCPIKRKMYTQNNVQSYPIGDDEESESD

For `NCCc1ccc(O)c(O)c1` [dopamine], the IC50 (VMAT2 [1]) is listed as 0.92 ± 0.05 µM and the Km (VMAT2 [1]) is listed as 0.82 to 0.95 µM.
In the case of `COC(=O)[C@H]1[C@@H](OC(=O)c2ccccc2)C[C@@H]2CC[C@H]1N2C` [cocaine], the “inhibition of FFN206 uptake (negative control)” value (VMAT2 [2]; 96-well fluorometric assay, VMAT2-HEK cells) is listed as “no detectable inhibition”, the “inhibitory effect on VMAT2 transport (FFN206 uptake) in screen” value (from here on “inhibitory effect on VMAT2 transport”) (VMAT2 [2]) is listed as “no or weak inhibitory effects” and the “activity in inhibiting vesicular uptake of [3H]DA by VMAT” value (shortened to “activity in inhibiting vesicular uptake”) (VMAT) is listed as “inactive”.
For `CCN(CC)CCCC(C)Nc1ccnc2cc(Cl)ccc12` (stereo not shown) [Chloroquine, chloroquine], the “inhibitory effect on VMAT2 transport” value (VMAT2 [2]) was “reduces VMAT2-dependent uptake” and the “effect on punctate FFN206 fluorescence signal” value (VMAT2-HEK cells; 100 µM, within 3 minutes of treatment, cells pre-loaded with FFN206 5 µM) was “completely abolished”.
In the case of `CC(C)(N)Cc1ccccc1` [phentermine], the “inhibitory effect on VMAT2 transport” value (VMAT2 [2]) is given as “no or weak inhibitory effects” and the “activity in inhibiting vesicular uptake” value (VMAT) is given as “inactive”.
In the case of `C[C@H](N)Cc1ccccc1` [S(+)-amphetamine], the IC50 (VMAT) is listed as 3.27 µM.
In the case of `c1ccc(CN2CCNCC2)cc1` [benzylpiperazine], the “inhibitory effect on VMAT2 transport” value (VMAT2 [2]) is given as “no or weak inhibitory effects” and the “activity in inhibiting vesicular uptake” value (VMAT) is given as “inactive”.
For `COc1cc2c(cc1OC)C1CC(=O)C(CC(C)C)CN1CC2` (stereo not shown) [TBZ, tetrabenazine], the “FFN206 uptake in VMAT2-HEK cells pre-treated with inhibitor” value (VMAT2-HEK cells; inhibitor 2 µM, 1 hr preincubation then coincubation, FFN206 5 µM, 2 hr) was “Negligible uptake of FFN206”.
In the case of `CCN(CC)C(C)C(=O)c1ccccc1` (stereo not shown) [diethylpropion], the “inhibitory effect on VMAT2 transport” value (VMAT2 [2]) is given as “no or weak inhibitory effects” and the “activity in inhibiting vesicular uptake” value (VMAT) is given as “inactive”.
In the case of `C[C@@H](N)Cc1ccccc1` [R(−)-amphetamine], the IC50 (VMAT) is given as 29 µM.
